Earlier results, collected in patent US9138422B2, “Method of using antimycin A to downregulate Wnt/b-catenin pathway to treat gefitinib resistant cancer” (priority 2011, dated 2015).
Like-named read-outs stand apart in the source and are kept apart here.

Test system: NSCLC (lung adenocarcinoma) patients
Settings: cited from earlier work

Compound | median progression free survival (first-line treatment, sensitive EGFR mutated patients) | median progression free survival (second line treatment after chemotherapy)
COc1cc2ncnc(Nc3ccc(F)c(Cl)c3)c2cc1OCCCN1CCOCC1 [gefitinib] | about 10 months | 
C#Cc1cccc(Nc2ncnc3cc(OCCOC)c(OCCOC)cc23)c1 [erlotinib] |  | 2.2 months
